The test system of the assay is U373 glioblastoma cells. As to the kind of experiment: Confocal laser scanning microscopy of mitotic spindle, U373. The note with it: 100 μM. The format is cell-based, human. As to the method:
Immunofluorenscence was used to examine the spindle features of human cancer cell lines treated with Compound 003 or 0.5% DMSO. Initially, cells at log phase were seeded onto sterile 22 mm coverslips in six -well culture plates. 24 hours later, the cells were treated with compound 003 for 2 hours at 37° C., 5% C02, fixed in methanol (−20° C. 15 min) followed by a 15 minute incubation with PBS +0.1.% Tx-100. The coverslips were incubated with antibodies raised against α-tubulin, γ-tubulin (Sigma Chemical Co., St Louis, Mo.) (40 min 37° C.), washed in PBS-Tx-100, and incubated with an appropriate secondary antibody conjugated to FITC (Jackson ImmunoResearch, Westgrove, Pa.). Cellular DNA was labeled with 5 μM TOTO3 (Molecular Probes, Eugene, Oreg.) for 20 minutes. Coverslips were immediately inverted onto slides in Vectashield (Vector Labs, Burlingame, Calif.) to prevent photobleaching, sealed with nail varnish and stored at −20° C. The slides were examined using a Bio-Rad MRC-1024 Laser Scanning Confocal Microscope equipped with a Kr/Ar laser (BioRad, Hercules, Calif.) mounted on a Nikon Eclipse E800 upright microscope with high numerical aperture objectives (Nikon, Melville, N.Y.). Digital data were processed using Lasersharp (BioRad) and Adobe Photoshop software (Adobe Systems, Mountain View, Calif.). […]

For `COC(=O)C(C)NP(=O)(OCC1OC(n2cc(C)c(=O)[nH]c2=O)CC1N=[N+]=[N-])Oc1ccc(OC)cc1` (stereo not shown) [Compound 003, 3′-azidothymidine 5′-[p-methoxyphenylmethoxyalaninyl phosphate]], the mitotic spindle formation result is recorded as “induced aberrant multipolar spindle formation”.
